The values below come from publication PMC12090178, “Exploring the Potential of Homologous Recombination Protein PALB2 in Synthetic Lethal Combinations” (ACS Chemical Biology, 2025).

The test system of one series is Rad51 foci. The series can be described thus: Rad51 foci assay. The following applies: Pom 10 μM 24 h, then CPT 10 nM 12 h. In kind it is cell-based. The method, then:
50,000 cells (WT HEK293 or HEK293-PALB2^IKZF 3d/IKZF 3d) were seeded on coverslips and cultured with Pom (10 μM). After 24 h, CPT was added (10 nM). […] After removing the BSA-containing PBS, coverslips were incubated with primary antibody (Alexa Fluor 488 Anti-Rad51 antibody [EPR4030(3)] (Abcam, ab309674, RRID/AB_3675862), 1:500 in PBS) for 2 h and washed with PBS (3 times). Then, coverslips were mounted with antifade mountant with DAPI (Invitrogen) and fluorescence images were recorded by confocal microscopy (Leica Point Scanning Confocal SP8). Rad51 foci numbers in each cell were counted with Fiji ImageJ.
6 Homologous recombination assay
DR-GFP1 substrate (a gift from Maria Jasin, Addgene plasmid #26475; RRID:Addgene_26475) is flanked by human AAVS1 homology arms. Endogenous AAVS1 promoter drives T2A-hygromycin expression after integration. PX458-AAVS1 (#113194, Addgene) encodes sgRNA for human AAVS1 and expresses Cas9 nuclease. […]
(§1) After obtaining cells carrying the DR-GFP reporter, cells were maintained in medium with 10 µM pomalidomide for 24 hours. […] Four days after transfection, cells were resuspended in PBS and analyzed by flow cytometry using a BD LSR Fortessa. […]
(§2) primary antibody incubation, coverslips were washed 3 times with PBS. […] Fluorescence images were taken by confocal microscopy (LEICA POINT SCANNING CONFOCAL SP8). RAD51 f o ci numbers in each cell we re counted with Fiji ImageJ.

The test system of series [1] is homologous recombination repair (DR-GFP reporter). The series can be described thus: DR-GFP reporter assay of homologous recombination. In kind it is cell-based. The protocol: DR-GFP plasmid[53] (a gift from Maria Jasin, Addgene plasmid #26475; RRID/Addgene_26475) was transfected into HEK293 cells with TurboFect (Thermo Scientific) at 70% confluency and selected with hygromycin (0.1 g/L, Invivogen) after 48 h. Transfected cells were moved to a 150 mm cell culture dish and cultured in DMEM medium with hygromycin (0.1 g/L). After obtaining cells carrying the DR-GFP reporter, the cells were treated with Pom for 24 h. Cells were then transfected with a modified pCBASceI[53] (a gift from Maria Jasin, Addgene plasmid #26477; RRID/Addgene_26477, I-SceI was expressed with P2A-mCherry to select for positively transfected cells) to introduce DSB at the I-SceI site in inserted DR-GFP plasmid. Four days after transfection, cells were resuspended in PBS and analyzed by flow cytometry.
6 Homologous recombination assay […]
as §1, §2

The subject of another series is PALB2-IKZF3d. The series is described as follows: IMiD-induced degradation of PALB2-IKZF3d (Western blot). In kind it is cell-based. Particulars: for degradation of PALB2 in IKZF3d knock-in cells: homozygous IKZF3d knock-in HEK293 cells, 24 h treatment. The method, then:
5.1 Degradation of PALB2 and UPP rescue assays
To show PALB2 deegradation, cells were treated with pomalidomide at the indicated concentrations for 24 h. The cells were subsequently lysed and prepared for gel electrophoresis and western blotting.
To show UPP rescue, MG132 and MLN4924 were used to inhibit the ubiquitination-proteasome degradation pathway. The cells were first treated with 1 μM MG132 or 1 μM MLN4924. After 6 h, pomalidomide was added to a final concentration of 10 μM. After 18 h, the cells were collected and lysed.
To show PALB2 recovery, the cells were first treated with 10 μM pomalidomide or 10 μM iberdomide for 24 h. After that, the culture medium was removed, the cells were washed three times with fresh culture medium and then cultured with culture medium without IMiDs.
The cells were then collected an d l yse d . […]
Figure S7. A). Degradation of endogenous PALB2.
B). PALB2 de gra dation rescue expe ri ment. The cells in the degradation rescue group w ere first t reated with 1 μ M MG132 and 1 μ M M LN49 24 for 6 hou rs and then t reated with 10 μ M pomalidomide for 1 8 hours. Cell samples were collected for WB analysis. The asterisk represents a nonspecific band of PALB 2 with t his antibody. […]
For orientation: In western blotting, separated proteins are transferred to a membrane and probed.

The subject of series [2] is HEK293 PALB2 IKZF3d/IKZF3d knock-in cells. The series is described as follows: Cell viability assay (WST-1). In kind it is cell-based. The following applies: 4 days (96 h), Pom 0, 5, 10 and 40 μM, WST-1. Background: Tetrazolium assays rely on reduction of a dye to a coloured formazan, in cell work by metabolically active cells.
The target of series [3] is PALB2 C-terminal WD40 domain. Particulars: previous structural work; read-out: binding affinity to PALB2; cited from earlier work. The method, then:
Previous structural work on the PALB2 C-terminal WD40 domain identified a small fragment of BRCA2 (residues 21–39) with an approximately 600 nM binding affinity (600 nM) to PALB2 (see Figure 2A for structure).[16] […] Binding of the BRCA2(21–39) peptide using fluorescence polarization (FP) with fluorescein (FAM) indeed gave a value in close alignment with the previous report (Figure 2B).[16] Building from this observation we further characterized the binding of amino acids 1 ...

In series [4] the target is BRCA2 21-39 (Homo sapiens) (UniProt P51587). Particulars: cited from earlier work.
Another series concerns SmBiT-PALB2. The series can be described thus: NanoBit protein-protein interaction assay in HEK293 cells. The series is classed as cell-based. Particulars: BRCA2 peptide fused to LgBiT, HEK293, 24 h after transfection, signal normalized to empty vector. The method, then: The NanoBit CMV MCS BiBiT-Ready Vector (Promega) was modified to express PALB2 with a C-Terminal SmBit and the BRCA2 N-terminal peptide with a N-terminal LgBit. 5000 HEK293 cells were seeded in each well of a 96-well plate with a white bottom and grown for 24 h with cell medium (DMEM supplemented with 10% FCS at 37 °C with 5% CO2). The plasmid (100 ng) was transfected with FuGene HD (Promega, E5911) and incubated for 24 h. Then, Nano-Glo Live cell assay substrate (Promega) was added and the luminescence signal was recorded for 1000 ms. Signal was normalized to empty vector.
3 PALB2-BRCA2 interaction assays
0.5 million HEK293 cells were seeded per well in a 6-well plate. After 24 h, 2 μg of plasmid pCMV-FLAG-PALB2-IKZF3d or pCMV-FLAG-GFP-IKZF3d (control group) was transiently transfected with TurboFect (Thermo Scientific, e.g. R0531 or R0533) int o each well . After 36 h , the medium of at least 3 wells was removed. The cells were washed once with cold PBS on ice. […] The samples were analyzed by Western Blot. […]
NanoBiT CMV MCS BiBiT-Ready Vector (Promega) was used to construct a plasmid that can express LgBit fusion and SmBit fusion at the same time in cells. […] 24 hours after transfection, the luminescence signal of each well was obtained by adding Nano-Glo Live Cell Assay System (Promega) and the signal was read on a T e can S p ark 10M ( Tecan) for 1000 ms without temperature control.

Series [5] addresses T1, PALB2 C-terminal WD40 domain (UniProt Q86YC2 835-1186).
T1 construct: PALB2 (partner and localizer of BRCA2), C-terminal WD40 beta-propeller domain; as I recall that construct spans about residues 835-1186; methods are in the Supporting Information; also called PALB2 C-terminal domain
T1 sequence: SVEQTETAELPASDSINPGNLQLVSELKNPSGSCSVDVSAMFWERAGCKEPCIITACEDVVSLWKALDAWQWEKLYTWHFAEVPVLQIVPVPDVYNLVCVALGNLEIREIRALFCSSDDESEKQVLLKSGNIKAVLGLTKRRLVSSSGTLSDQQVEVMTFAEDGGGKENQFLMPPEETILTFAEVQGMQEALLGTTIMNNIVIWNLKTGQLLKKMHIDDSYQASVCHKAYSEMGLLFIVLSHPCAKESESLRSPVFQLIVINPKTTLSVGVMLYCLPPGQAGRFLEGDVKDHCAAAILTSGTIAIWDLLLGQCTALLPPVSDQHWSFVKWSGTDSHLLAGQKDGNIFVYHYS
The series can be described thus: fluorescence polarisation; not told for these peptides whether direct (labelled peptide) or displacement (dark peptide at 10 μM added to the PALB2C dilution series with 10 nM fluorescent peptide; competitive binding model); 25 °C. The following applies: both partners purified. (In general: Polarisation of emitted light reports the rotation of a fluorescent probe.)

Entries after “also recorded” stand apart in the source; their conditions may differ. Where no end group is shown, it is not given here.

Take `Nc1cccc2c1C(=O)N(C1CCC(=O)NC1=O)C2=O` (stereo not shown) [Pom, pomalidomide]: the “number of Rad51 foci formed in response to DSBs by camptothecin” value with Rad51 foci (PALB2 IKZF3d/IKZF3d cells) is listed as “significantly decrease”. For the same molecule, in the series on Rad51 foci (PALB2 wild-type cells), the “compromised Rad51 foci formation” value is reported as “not observed”. Moreover, the “GFP-positive cells (DR-GFP)” value in series [1] (HEK293 wild-type cells, Pom vs DMSO control) is “remained largely unchanged”; in series [1] (PALB2 IKZF3d/IKZF3d cells, 10 μM Pom 24 h before I-SceI transfection, flow cytometry after 4 days) it was “notable decrease in GFP-positive cells”. Further, in the series on PALB2-IKZF3d (10 μM IMiD for 24 h, then medium removed and cells washed, knock-in cells), the “recovery of PALB2 levels after wash out” value is listed as “PALB2 levels recover after 24 h”. For the same molecule, the “degradation of transiently expressed PALB2-IKZF3d fusion” value in the series with PALB2-IKZF3d (HEK293, transient transfection, 10 μM pomalidomide, 24 h) was “occurred only with the C-terminal fusion; also recorded: shows degradation”. For the same molecule, the “degradation of PALB2 in IKZF3d knock-in cells” value in the series on PALB2-IKZF3d is recorded as “significant degradation of PALB2”; with PALB2-IKZF3d (listed as pomalidomide) it was “degrade most of the endogenous PA LB2”. Also, in series [2], the “viability of WT and KI cell lines with Pom alone” value was “did not show strong differences”.

Regarding “BRCA2 (residues 21–39): small fragment of BRCA2 (residues 21-39) from previous structural work (fluorescein-GGKADLGPISLNWFEELSSEA)”, the Kd in series [3] is roughly 600 nM.

Regarding PALB2 WD40 (from UniProt Q86YC2), the Kd in series [4] was 600 nM.

In the case of “W31R mutation of the BRCA(21–39) peptide: point mutated BRCA2 peptide (21-39, W31R) fused with LgBit; negative control (KADLGPISLNRFEELSSEA; also: fused with LgBiT)”, the “NanoBit interaction signal with PALB2” value in the series with SmBiT-PALB2 is “complete loss of the interaction signal”.

B1: BRCA(23–33) (peptide, UniProt P51587 23-33, looked up)
peptide: DLGPISLNWFE
notes: BRCA2 residues 23-33; Rink amide beads: probably a C-terminal amide (my surmise); also called absolute minimal peptide; source: synthetic peptide (SPPS, preparative HPLC)
B1 displayed a Kd in series [5] of 8000 nM.
